Laboratory results from patent US20220249525A1, “Fatty Acid Compounds for Prevention and Treatment of Neurodegenerative Disorders” (T OMEGA AS, priority 2019, published 2022).

What was measured:
HCC827 cells = experiment: Mitochondria respiration assay (OCR, extracellular flux) in HCC827 cells; assay type: cell-based
Description: Non-small cell lung cancer cells, HCC827 (ATCC) were cultured in RPMI-1640 Glutamax medium (Sigma-Aldrich St. Louis, Mo., USA), under conventional culture conditions. Media was supplemented with 10% Fetal Bovine Serum (FBS), 1% glutamine and 1% streptomycin/penicillin (Sigma-Aldrich). HeLaNRF1/c4 reporter cells were cultured in Dulbecco's Modified Eagle's Medium (DMEM) supplemented with 10% FBS, 2 mM L-Glutamine, 100 u/ml penicillin/streptomycin (Sigma-Aldrich,). Incubation was done at 37° C. in 5% CO2.
Mitochondria function was analyzed by measuring oxygen consumption rate (OCR) by extracellular flux analysis in a Seahorse XFe96 instrument (Agilent Seahorse XF Technologies). The measurements were performed in DADA basic media without phenol red, supplemented with L-glutamine (2 mM), pyruvate (2 mM), and sodium chloride, NaCl (32 mM) (Sigma-Aldrich). Respiratory rates were measured following sequential additions of glucose (10 mM), oligomycin, carbonyl cyanide m-chlorophenyl hydrazine (CCCP) and a mixture of rotenone (1 μM) and antimycin A (1 μM). Before carrying out the measurements for each cell model, optimizations were done for; cell number, CCCP, and oligomycin concentrations. For the HCC 827 cell model optimal conditions were; 30,000 cells/well, 0.5 μM CCCP, and 3 μM Oligomycin; and in HeLaNRF1/c4 reporter cell model; 20,000 cells/well, 1 μM CCCP and 3 μM Oligomycin. The OCR measured initially (before any additions) represented the rate ‘basal respiration.’ The addition of ATP synthase inhibitor oligomycin provided oxygen consumption independent of ATP production (‘leak activity’). Maximal respiration (also referred to as ‘respiratory capacity’) was measured upon addition of the uncoupler CCCP. […] After the extracellular flux analysis the analysis plates were washed with Phosphate Buffered Saline (PBS) and frozen at −80° C. The BCA assay (Pierce BCA protein assay kit, Thermo Fisher Scientific, Waltham, Mass. USA) was employed to measure the protein content in the wells. To evaluate the effects of the different treatments, the respiratory rates from compound-treated wells were normalized to protein content, and calculated as percentage of the average respiratory rate of the DMSO-treated control wells. All treatments were performed with 6-8 replicate wells.

HuH-7 cells = experiment: WST-1 cell viability assay in HuH-7 cells; assay type: cell-based
Description: The fatty acids (FAs) TTA, tr-TTA, N-TTA, tr-N-TTA and (PA) were complexed with FBS following the same procedure, differing only in final stock concentration, due to variation in solubility. Approximately 0.07 g of FA was weighed in a 10 ml sterile serum tube (BD Vacutainer®, catalog no. 368430) and dissolved in sterile filtrated 0.1 M sodium hydroxide (NaOH) of a volume giving 25 mM FA, controls without FA were made, containing only NaOH and FBS. A syringe (Sterican®, catalog no. 4657577) was pierced through the rubber cap of the serum tube, and the tube was placed in an 80° C. water bath until the FAs were dissolved. Each FA-solution was then diluted in inactivated FBS to stock concentration 1 mM (N-TTA, tr-N-TTA), and 2 mM by adding the FA to a volume of 100% FBS after heating the FBS to 45° C. in a water bath. The transfer of FA to FBS had to be executed controlled and swiftly to avoid the formation of precipitates. If any precipitates in the solution were visible, the FA and a new volume of FBS were reheated, and the procedure performed again. Following successful complexation, the stock solutions were stored at −20° C. in 1 ml aliquots (CryoPure tube, Sarstedt AG & Co, Nümbrecht, Germany).
The WST-1 cell proliferation assay was performed using the kit from Roche (table 4.2.) and its accompanying procedure (version 16, February 2011) (134). The number of cells seeded to each well in the 96-well plates (Corning Inc., catalog no. 353072) varied depending on the treatment time and cell type (table 3.).
Cell suspension and medium were then transferred to each well in a volume of 100 μl in total. Subsequently, the plates were incubated for 24 hours to make the cells settle. The next day, 100 μl with FA complexed with FBS or diluted in DMSO was added to row A or B in the 96-well plate to give a defined concentration. The solution was then mixed with a pipette, and 100 μl of the medium with FA was transferred to the next well in the same column, mixed by pipetting up and down at least five times before 100 μl was transferred again to the next well in the column. This procedure was repeated until the second last, or last well in each column was reached, making a series of two-fold dilution of the FAs in the cell medium. Two parallels were performed for every treatment per run. After the addition of FAs, the plates were incubated for 24-96 hours depending on the length of the treatment.
Following the FA-treatment, the cells were studied under a microscope to ensure that visual observations matched the measured absorbance and cell activity in the assay. Subsequently, 10 μl WST-1 reagent was added to each well, and the plates were incubated for 3 hours. Due to high activity in the HuH-7 cell line, the WST-1 reagent was diluted 1:1 with PBS. Before the measurement of absorbance, the plates were placed on a shaker for 1 minute ensuring thoroughly mixing of the wells. The plates were then put straight into the spectrophotometer (SpectraMax Plus 384 Microplate Reader, Molecular Devices Corporation, San Jose, Calif., USA) to perform the measurements. The accompanying software was used (SoftMax Pro, Molecular Devices Corporation, San Jose, Calif., USA) to obtain the results. The absorbance of the samples was measured at 450 nm, and the reference wavelength was set to 650 nm. For each well, the measured absorption at 650 nm was subtracted from the absorption at 450 nm. The measured absorbance for the treated cells was then compared to the controls (blank) containing only cells and growth medium.

[1] = 4 week high-fat diet study, body weight, adipose tissue, plasma glucose and cholesterol; assay type: in vivo, C57BL/6 mice; settings: mice, N-TTA 750 mg/kg or triple-N-TTA 350 mg/kg body weight, 4 weeks
Description: This animal study was conducted according to the Guidelines for the Care and Use of Experimental Animals, and the protocol was approved by the Norwegian Food Authorities. 7 to 8-weeks old male C57BL/6 mice, were obtained from Janvier Labs. After one week of acclimatization, they were divided into 3 groups of 7 animals. One group was fed a control high-fat (25 w/v) diet while the two remaining groups were fed a high-fat diet supplemented with either N-TTA (750 mg/kg body weight) or triple-N-TTA (350 mg/kg body weight). After 4 weeks of feeding, the mice were anaesthetized with Isofluorane (Forane, Abbot Laboratories Ltd, Illinois, USA) inhalation under fasting conditions, and blood and liver samples were collected. […]
Glucose and lipids in plasma was measured on the Hitachi 917 system (Roche Diagnostics, GmbH, Mannheim, Germany) using kits from Roche Diagnostics or DiaSys.

In the case of `CCCCCCCCCCCCCCNCC(=O)O` [N-TTA, N-tetradecylglycine], the “leak respiration after oligomycin” value (HCC827 cells; 100 μM TTA, 200 μM 2-triple TTA, 30 μM TDG) is reported as “significantly increased”, the “basal respiratory rate (OCR)” value (HCC827 cells; compared to control) is reported as “decreased in a dose-dependent manner” and the “leak respiration after oligomycin” value (HCC827 cells; higher concentrations) is reported as “reduced leak respiration”. The “WST-1 activity compared to untreated cells” value (HuH-7 cells; 2 days, 16 μM, complexed with FBS) was 116%, the “WST-1 activity compared to no treatment” value (HuH-7 cells; 2 days, 125-250 μM) was 50-60% and the WST-1 activity (HuH-7 cells; 4 days, 1000 μM) was “The same result was true”. For the same molecule, the “LDL cholesterol (plasma)” value [1] was “reduced”, the “body weight gain vs high-fat control diet” value [1] was “significantly lower” and the “cholesterol esters (plasma)” value [1] was “reduced”. The “epididymal white adipose tissue depot” value [1] was “reduced in size”, the “free cholesterol (plasma)” value [1] was “reduced” and the “perirenal white adipose tissue depot” value [1] was “reduced in size”. For the same molecule, the “total cholesterol (plasma)” value [1] was “reduced” and the “blood glucose vs high-fat control diet” value ([1]; fasting) was “significantly lower”.
